What follows are compounds tested on total HDAC (assay: In vitro total HDAC activity (Fluor-de-Lys, HeLa nuclear extract)). Settings: screening at 100 µM, result in words.
Format: biochemical, human
Method: In vitro total HDAC activity was measured according to manufacturer's instructions using a nuclear extract from HeLa cells (human cervical cancer cell line) as HDAC source incubated with the Fluor-de-Lys® substrate (50 µM) for 20 min at room temperature (Fluor-de-Lys®, Enzo® Life Sciences, Antwerpen, Belgium). Reaction was stopped by addition of a developing solution (Fluor-de-Lys® developer I concentrate, Enzo® Life Sciences) containing trichostatin A (TSA) (2 µM). After 15 min of incubation at room temperature, fluorescence signal was measured on a fluorescence microplate reader (SYNERGY HTX multi-mode reader) with an exciting wavelength of 360 nm and emission wavelength of 460 nm. All dilutions of tested compounds were prepared in dimethylsulfoxide (DMSO).
Representative examples of 3-aminopyridines and 3,5-disubstituted nitrobenzenes were screened for their total HDAC inhibition capacity at 100 µM (Table 2). It was observed that only nitro-containing examples were active in the total HDAC screening assay (compounds 1, 3, 9 and 5), which moved forward to the specific HDAC8 isoenzyme assay (Table 3).

Question: N#Cc1ccc(-c2ncc(C(=O)c3cc([N+](=O)[O-])ccc3O)cc2N)cc1 [Compound 9, 4-[3-amino-5-(2-hydroxy-5-nitrobenzoyl)pyridin-2-yl]benzonitrile] was tested. Which “total HDAC inhibition capacity” value did it give?
Answer: active

Question: For O=C(c1cc(C(=O)c2cc([N+](=O)[O-])ccc2O)cc([N+](=O)[O-])c1)c1cc([N+](=O)[O-])ccc1O [Compound 5, (5-Nitro-1,3-phenylene)bis[(2-hydroxy-5-nitrophenyl)methanone]], which “total HDAC inhibition capacity” value is on record?
Answer: active

Question: How did the “total HDAC inhibition capacity” value turn out when Nc1cc(C(=O)c2cc([N+](=O)[O-])ccc2O)cnc1-c1ccccc1 [Compound 1, (5-Amino-6-phenylpyridin-3-yl)(2-hydroxy-5-nitrophenyl)methanone] was run?
Answer: active

Question: How did the “total HDAC inhibition capacity” value turn out when Nc1cc(C(=O)c2ccccc2O)cnc1-c1ccc([N+](=O)[O-])cc1 [Compound 3, [5-Amino-6-(4-nitrophenyl)pyridin-3-yl](2-hydroxyphenyl)methanone] was run?
Answer: active

Same assay, conditions: total HDAC activity, nuclear extract from HeLa cells, compound at 100 µM

Question: How did the “%Inhibition at 100 µM” value turn out when O=C(c1cc(C(=O)c2cc([N+](=O)[O-])ccc2O)cc([N+](=O)[O-])c1)c1cc([N+](=O)[O-])ccc1O [drawing 37] was run?
Answer: 73%

Question: O=C(c1cc(C(=O)c2cc(Cl)ccc2O)cc([N+](=O)[O-])c1)c1cc(Cl)ccc1O was tested. Which “%Inhibition at 100 µM” value did it give?
Answer: Inactive

Question: How did the “%Inhibition at 100 µM” value turn out when N#Cc1ccc(-c2ncc(C(=O)c3cc([N+](=O)[O-])ccc3O)cc2N)cc1 [drawing 29] was run?
Answer: 82%

Question: For Cc1cc(C(=O)c2cnc(-c3ccccc3)c(N)c2)c(O)c([N+](=O)[O-])c1, which “%Inhibition at 100 µM” value is on record?
Answer: 67%

Question: For Nc1cc(C(=O)c2ccccc2O)cnc1-c1ccc([N+](=O)[O-])cc1 [drawing 30], which “%Inhibition at 100 µM” value is on record?
Answer: 67%

Question: Nc1cc(C(=O)c2cc([N+](=O)[O-])ccc2O)cnc1-c1ccccc1 [drawing 28] was tested. Which “%Inhibition at 100 µM” value did it give?
Answer: 78%

Question: For Cc1ccc(O)c(C(=O)c2cc(C(=O)c3cc(C)ccc3O)cc([N+](=O)[O-])c2)c1, which “%Inhibition at 100 µM” value is on record?
Answer: Inactive

Question: Nc1cc(C(=O)c2ccccc2O)cnc1-c1ccc2ccccc2c1 was tested. Which “%Inhibition at 100 µM” value did it give?
Answer: Inactive

Question: How did the “%Inhibition at 100 µM” value turn out when Nc1cc(C(=O)c2ccccc2O)cnc1-c1ccccc1 was run?
Answer: Inactive

Question: For O=C(c1cc(C(=O)c2ccccc2O)cc([N+](=O)[O-])c1)c1ccccc1O, which “%Inhibition at 100 µM” value is on record?
Answer: Inactive

Question: Cc1cc(C(=O)c2cc(C(=O)c3cc(C)cc([N+](=O)[O-])c3O)cc([N+](=O)[O-])c2)c(O)c([N+](=O)[O-])c1 was tested. Which “%Inhibition at 100 µM” value did it give?
Answer: 65%

Question: How did the “%Inhibition at 100 µM” value turn out when COc1cccc(O)c1C(=O)c1cc(C(=O)c2c(O)cccc2OC)cc([N+](=O)[O-])c1 was run?
Answer: Inactive

The compounds below were run against T1, recombinant protein HDAC8 (Homo sapiens, UniProt Q9BY41) (assay: In vitro HDAC8 isoenzyme activity (Fluor-de-Lys-HDAC8 substrate)). Settings: 1 U/well, substrate 50 µM.
T1 construct: purchased Enzo Life Sciences
T1 sequence (Q9BY41 1-377): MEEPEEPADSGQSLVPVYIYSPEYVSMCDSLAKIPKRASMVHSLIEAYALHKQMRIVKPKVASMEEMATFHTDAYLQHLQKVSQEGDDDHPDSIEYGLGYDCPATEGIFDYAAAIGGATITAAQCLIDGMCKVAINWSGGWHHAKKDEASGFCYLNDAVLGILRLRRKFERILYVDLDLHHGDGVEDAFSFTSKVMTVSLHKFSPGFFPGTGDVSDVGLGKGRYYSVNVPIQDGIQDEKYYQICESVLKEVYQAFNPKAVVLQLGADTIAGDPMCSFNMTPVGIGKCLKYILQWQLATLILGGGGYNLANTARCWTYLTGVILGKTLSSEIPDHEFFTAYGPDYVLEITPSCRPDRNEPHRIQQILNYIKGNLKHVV
Format: biochemical
Method: In vitro HDAC8 isoenzyme activity was tested using 1 U/well of recombinant protein HDAC8 (Enzo® Life Sciences) incubated with the Fluor-de-Lys®-HDAC8 substrate (50 µM) for 20 min at room temperature. Reactions were stopped by adding a developer II solution (Fluor-de-Lys® developer II concentrate, Enzo® Life Sciences) containing 2 µM of TSA. After 45 min of incubation at room temperature, fluorescence is measured as for total HDAC activity.

Question: Nc1cc(C(=O)c2cc([N+](=O)[O-])ccc2O)cnc1-c1ccccc1 [drawing 39] was tested. Which IC50 did it give?
Answer: 74 µM

Question: O=C(c1cc(C(=O)c2cc([N+](=O)[O-])ccc2O)cc([N+](=O)[O-])c1)c1cc([N+](=O)[O-])ccc1O [Compound 5, (5-Nitro-1,3-phenylene)bis[(2-hydroxy-5-nitrophenyl)methanone]] was tested. Which IC50 did it give?
Answer: 27 µM

Question: N#Cc1ccc(-c2ncc(C(=O)c3cc([N+](=O)[O-])ccc3O)cc2N)cc1 [drawing 40] was tested. Which IC50 did it give?
Answer: 58 µM

The compounds below were run on total HDAC (assay: In vitro total HDAC activity (Fluor-de-Lys, HeLa nuclear extract)). Settings: nuclear extract from HeLa cells, 1µM (footnote a).
Format: biochemical, human

Question: CC(/C=C/C(=O)NO)=C\[C@@H](C)C(=O)c1ccc(N(C)C)cc1 [Trichostatin A] was tested. Which “%Inhibition of 1µM” value did it give?
Answer: 90^a %

From patent EP4306106A1, “NITRO-CONTAINING COMPOUNDS, COMPOSITIONS AND USES THEREOF” (Universidade de Aveiro, priority 2022, dated 2024)
